Legend:
T47D cells = experiment: γH2AX immunostaining (DNA damage) in T47D cells; type: cell-based, human
Method: Immunostaining: Cells were grown in clearing media for 48 h and plated on 20 mm coverslip in 12 well plates with a density of 2×10^5 cells/well. […] Cells were washed with 1×PBS, blocked in 2% BSA/PBS with 0.1% Triton-X 100 for 1 hr at room temperature (RT), incubated overnight with γH2AX antibody (Cell Signaling #9718 S) or ERα antibody (Santa Cruz Biotechnology #sc-8002) at 4° C. and 1 hour with secondary antibody. S9.6: Cells were fixed in ice-cold 100% methanol for 10 min at −20° C., permeabilized in 100% acetone for 1 min at RT, blocked for 30 min in saline sodium citrate pH 7 (SSC, 4×), 3% BSA, 0.1% Triton-X and incubated with S9.6 (Kerafast #ENH001) 2 hr at RT followed by 1 h with secondary antibody. If indicated, slides were treated with RNase H (NEB #M0297L) for 4 hr at 37° C. prior to incubation with primary antibody. Stained cells were mounted with Vectashield mounting medium containing DAPI (Vector Laboratories #H-1200). Slides were imaged at 60× (immersion oil) with Nikon A1 Spectral Confocal microscope. Analysis of γH2AX and S9.6 intensity per nucleus or foci per nucleus was calculated using Nikon analysis software, where DAPI was used as a mask for the nucleus.

TFF1 = experiment: RT-qPCR of estrogen-responsive gene TFF1 in T47D cells; type: cell-based, human; conditions: fulvestrant 1 μM with 10 nM E2, T47D
Method: RT-qPCR: RNA from T47D cells, MCF-7 Cells or flash-frozen 4th mammary gland was isolated with TRIzol (Thermofisher Scientific #15596018) and Direct-zol RNA MiniPrep Plus (Zymo Research #R2072). cDNA was prepared with Protoscript II First Strand cDNA Synthesis Kit (New England Biolabs #E6560S) and qPCR for TFF1, progesterone receptor (PGR) and Amphiregulin (AREG) was performed on CFX96 Real-Time System thermocycler (Bio-Rad) using primers in Table 1.

ER = conditions: compared to BP3; cited from earlier work

Row | SMILES | effect on E2-induced γH2AX intensity (T47D cells; fulvestrant 1 μM with 10 nM E2, T47D) | effect on γH2AX intensity in response to 5 μM BP3 and 5 μM PP (T47D cells; fulvestrant 1 μM, T47D) | effect on transcriptional responses (TFF1) to E2 (TFF1) | ER transactivation potential (ER)
1 | C[C@]12CC[C@@H]3c4ccc(O)cc4C[C@@H](CCCCCCCCC[S+]([O-])CCCC(F)(F)C(F)(F)F)[C@H]3[C@@H]1CC[C@@H]2O (stereo partly shown) [fulvestrant] | significantly reduced | inhibited | blocked | –
2 | O=C(c1ccccc1)c1ccc(O)cc1O [2,4-diOH-BP] | – | – | – | higher ER transactivation potential compared to BP3

From patent US12590950B2, “Methods for predicting ER-mediated DNA damage” (UNIVERSITY OF MASSACHUSETTS, priority 2019, dated 2026)
